In patent US5132402A, “Adsorbent, method for production thereof, and method for use thereof” (Agency of Industrial Science and Technology, priority 1987, dated 1992):
Where a SMILES comes first, the peptide text is derived from it. Bridges are numbered along the chain shown (N, C = ends).

Assay: Solubility of the peptide in the phosphate buffer solution used for immobilization
Assay type: physicochemical
Details: phosphate buffer solution (0.02 mol/liter) of pH 7.4
Method: (a) The immobilization procedure of Example 2(a) was repeated, except that 20 mg of the peptide obtained in Synthesizing Example 18 was used in place of 20 mg of the peptide obtained in Synthesizing Example 2.

solubility in the phosphate buffer solution: low solubility
SMILES: CC(C)C[C@H](NC(=O)[C@H](Cc1ccc(O)cc1)NC(=O)[C@@H]1CCCN1C(=O)[C@@H](NC(=O)[C@H](CC(=O)O)NC(=O)[C@@H]1CCCN1C(=O)[C@@H]1CSSC[C@H](NC(=O)[C@@H](NC(=O)[C@H](Cc2ccc(O)cc2)NC(=O)[C@H](Cc2ccc(O)cc2)NC(=O)[C@@H](NC(=O)[C@H](Cc2c[nH]c3ccccc23)NC(=O)[C@H](Cc2c[nH]cn2)NC(=O)[C@H](CCCCN)NC(=O)[C@H](Cc2c[nH]c3ccccc23)NC(=O)CNC(=O)[C@H](CC(C)C)NC(=O)[C@@H](N)CC(C)C)C(C)C)[C@@H](C)O)C(=O)N1)[C@@H](C)O)C(=O)N[C@@H](CC(=O)O)C(=O)O [Synthesizing Example 18] (H-LLGWKHWVYYTCCPDTPYLD-OH; disulfide 12-13)
